# Laboratory results taken from ChEMBL document CHEMBL1122193, “Design of potent and selective antagonists of the vasopressor responses to arginine-vasopressin” (J Med Chem, 1982).
# Residues, ends and D or L forms follow the SMILES beside them.
# Tests used:
# [1] = species: Rattus norvegicus; assay: Effective dose for anti-vasopressor potency to reduce the response to 2x units of agonist to equal the response to 1x units; assay type: functional
# [2] = species: Rattus norvegicus; assay: In vitro anti-oxytocic potency was recorded in presence of 0.5 mM Mg2+ in rat uteri; assay type: functional; conditions: read-out: pA2 (converted)
# [3] = species: Rattus norvegicus; assay: In vitro anti-oxytocic potency was recorded in absence of Mg2+ in rat uteri; assay type: functional; conditions: read-out: pA2 (converted)
# [4] = test system: Rattus norvegicus; assay: Antidiuretic activity in intravenous antidiuretic assay in rats under ethanol anesthesia; assay type: functional, Urine
# [5] = test system: Rattus norvegicus; assay: Compound evaluated in vivo and negative logarithm of effective dose divided by estimated volume of distribution (67 mL/kg) determined; assay type: ADME, organism-based; conditions: read-out: pA2 (converted)
SMILES,Effective dose [1] [nM/kg],Kb [2] [µM],Kb [3] [µM],Antidiuretic activity [4] [U/mg],Kb [5] [µM]
CC1(C)CC(=O)N[C@@H](Cc2ccc(O)cc2)C(=O)N[C@@H](Cc2ccccc2)C(=O)N[C@@H](CCC(N)=O)C(=O)N[C@@H](CC(N)=O)C(=O)N[C@H](C(=O)N2CCC[C@H]2C(=O)N[C@@H](CCCN=C(N)N)C(=O)NCC(N)=O)CSS1 [listing 1 of 2 here],3.2,,,,
NC(=O)CC[C@@H]1NC(=O)[C@H](Cc2ccccc2)NC(=O)[C@H](Cc2ccc(O)cc2)NC(=O)CC2(CCCCC2)SSC[C@@H](C(=O)N2CCC[C@H]2C(=O)N[C@@H](CCCN=C(N)N)C(=O)NCC(N)=O)NC(=O)[C@H](CC(N)=O)NC1=O [listing 1 of 2 here],0.34,,,,
CC(C)[C@@H]1NC(=O)[C@H](Cc2ccccc2)NC(=O)[C@H](Cc2ccc(O)cc2)NC(=O)CC(C)(C)SSC[C@@H](C(=O)N2CCC[C@H]2C(=O)N[C@H](CCCN=C(N)N)C(=O)NCC(N)=O)NC(=O)[C@H](CC(N)=O)NC1=O [listing 1 of 2 here],,0.0759,,,
CCC1(CC)CC(=O)N[C@@H](Cc2ccc(O)cc2)C(=O)N[C@H](Cc2ccccc2)C(=O)N[C@@H](CCC(N)=O)C(=O)N[C@H](CC(N)=O)C(=O)N[C@@H](C(=O)N2CCC[C@H]2C(=O)N[C@H](CCCN=C(N)N)C(=O)NCC(N)=O)CSS1,0.81,0.2,0.112,0.06,0.011
"CC(C)[C@@H]1NC(=O)[C@H](Cc2ccccc2)NC(=O)[C@H](Cc2ccc(O)cc2)NC(=O)CC2(CCCCC2)SSC[C@@H](C(=O)N2CCC[C@H]2C(=O)N[C@H](CCCN=C(N)N)C(=O)NCC(N)=O)NC(=O)[C@H](CC(N)=O)NC1=O (HELM PEPTIDE1{Y.F.V.N.C.P.[dR].G.[am]}|CHEM1{[O=C(CC1(S[*:2])CCCCC1)[*:1]]}$PEPTIDE1,CHEM1,1:R1-1:R1|PEPTIDE1,CHEM1,5:R3-1:R2$$$V2.0) [listing 1 of 2 here]",1.5,,,,
CC(C)[C@@H]1NC(=O)[C@H](Cc2ccccc2)NC(=O)[C@H](Cc2ccc(O)cc2)NC(=O)CC(C)(C)SSC[C@@H](C(=O)N2CCC[C@H]2C(=O)N[C@H](CCCN=C(N)N)C(=O)NCC(N)=O)NC(=O)[C@H](CC(N)=O)NC1=O [listing 2 of 2 here],1.1,,,123,
CC1(C)CC(=O)N[C@@H](Cc2ccc(O)cc2)C(=O)N[C@H](Cc2ccccc2)C(=O)N[C@@H](CCC(N)=O)C(=O)N[C@H](CC(N)=O)C(=O)N[C@@H](C(=O)N2CCC[C@H]2C(=O)N[C@H](CCCN=C(N)N)C(=O)NCC(N)=O)CSS1,2.5,0.195,0.0135,5.8,0.0355
NC(=O)CC[C@@H]1NC(=O)[C@H](Cc2ccccc2)NC(=O)[C@H](Cc2ccc(O)cc2)NC(=O)CC2(CCCCC2)SSC[C@@H](C(=O)N2CCC[C@H]2C(=O)N[C@H](CCCN=C(N)N)C(=O)NCC(N)=O)NC(=O)[C@H](CC(N)=O)NC1=O [listing 1 of 2 here],0.2,,,0.31,
NC(=O)CC[C@@H]1NC(=O)[C@H](Cc2ccccc2)NC(=O)[C@H](Cc2ccc(O)cc2)NC(=O)CC2(CCCCC2)SSC[C@@H](C(=O)N2CCC[C@H]2C(=O)N[C@@H](CCCN=C(N)N)C(=O)NCC(N)=O)NC(=O)[C@H](CC(N)=O)NC1=O [listing 2 of 2 here],,0.0537,0.0479,,
CCC1(CC)CC(=O)N[C@@H](Cc2ccc(O)cc2)C(=O)N[C@@H](Cc2ccccc2)C(=O)N[C@@H](CCC(N)=O)C(=O)N[C@@H](CC(N)=O)C(=O)N[C@H](C(=O)N2CCC[C@H]2C(=O)N[C@@H](CCCN=C(N)N)C(=O)NCC(N)=O)CSS1 [listing 1 of 2 here],,0.0692,0.0501,,0.00437
CC(C)[C@@H]1NC(=O)[C@@H](Cc2ccccc2)NC(=O)[C@H](Cc2ccc(O)cc2)NC(=O)CC(C)(C)SSC[C@H](C(=O)N2CCC[C@H]2C(=O)N[C@@H](CCCN=C(N)N)C(=O)NCC(N)=O)NC(=O)[C@@H](CC(N)=O)NC1=O,0.84,0.0191,0.00813,312,0.012
"CC(C)[C@@H]1NC(=O)[C@H](Cc2ccccc2)NC(=O)[C@H](Cc2ccc(O)cc2)NC(=O)CC2(CCCCC2)SSC[C@@H](C(=O)N2CCC[C@H]2C(=O)N[C@H](CCCN=C(N)N)C(=O)NCC(N)=O)NC(=O)[C@H](CC(N)=O)NC1=O (HELM PEPTIDE1{Y.F.V.N.C.P.[dR].G.[am]}|CHEM1{[O=C(CC1(S[*:2])CCCCC1)[*:1]]}$PEPTIDE1,CHEM1,1:R1-1:R1|PEPTIDE1,CHEM1,5:R3-1:R2$$$V2.0) [listing 2 of 2 here]",,0.589,0.234,,
CCC1(CC)CC(=O)N[C@@H](Cc2ccc(O)cc2)C(=O)N[C@H](Cc2ccccc2)C(=O)N[C@@H](C(C)C)C(=O)N[C@H](CC(N)=O)C(=O)N[C@@H](C(=O)N2CCC[C@H]2C(=O)N[C@@H](CCCN=C(N)N)C(=O)NCC(N)=O)CSS1,0.38,0.0219,0.0479,1.5,0.00513
CCC1(CC)CC(=O)N[C@@H](Cc2ccc(O)cc2)C(=O)N[C@H](Cc2ccccc2)C(=O)N[C@@H](C(C)C)C(=O)N[C@H](CC(N)=O)C(=O)N[C@@H](C(=O)N2CCC[C@H]2C(=O)N[C@H](CCCN=C(N)N)C(=O)NCC(N)=O)CSS1,0.35,0.0617,0.0513,0.71,0.00661
CC1(C)CC(=O)N[C@@H](Cc2ccc(O)cc2)C(=O)N[C@@H](Cc2ccccc2)C(=O)N[C@@H](CCC(N)=O)C(=O)N[C@@H](CC(N)=O)C(=O)N[C@H](C(=O)N2CCC[C@H]2C(=O)N[C@@H](CCCN=C(N)N)C(=O)NCC(N)=O)CSS1 [listing 2 of 2 here],,1.17,,,
CCC1(CC)CC(=O)N[C@@H](Cc2ccc(O)cc2)C(=O)N[C@@H](Cc2ccccc2)C(=O)N[C@@H](CCC(N)=O)C(=O)N[C@@H](CC(N)=O)C(=O)N[C@H](C(=O)N2CCC[C@H]2C(=O)N[C@@H](CCCN=C(N)N)C(=O)NCC(N)=O)CSS1 [listing 2 of 2 here],0.32,,,0.38,
NC(=O)CC[C@@H]1NC(=O)[C@H](Cc2ccccc2)NC(=O)[C@H](Cc2ccc(O)cc2)NC(=O)CC2(CCCCC2)SSC[C@@H](C(=O)N2CCC[C@H]2C(=O)N[C@H](CCCN=C(N)N)C(=O)NCC(N)=O)NC(=O)[C@H](CC(N)=O)NC1=O [listing 2 of 2 here],,0.257,0.107,,0.00302
"CC(C)[C@@H]1NC(=O)[C@H](Cc2ccccc2)NC(=O)[C@H](Cc2ccc(O)cc2)NC(=O)CC2(CCCCC2)SSC[C@@H](C(=O)N2CCC[C@H]2C(=O)N[C@@H](CCCN=C(N)N)C(=O)NCC(N)=O)NC(=O)[C@H](CC(N)=O)NC1=O (HELM PEPTIDE1{Y.F.V.N.C.P.R.G.[am]}|CHEM1{[O=C(CC1(S[*:2])CCCCC1)[*:1]]}$PEPTIDE1,CHEM1,1:R1-1:R1|PEPTIDE1,CHEM1,5:R3-1:R2$$$V2.0)",0.76,,,0.32,
